ChEMBL document CHEMBL3352036, “Identification of 4'-O-β-D-glucosyl-5-O-methylvisamminol as a novel epigenetic suppressor of histone H3 phosphorylation at Ser10 and its interaction with 14-3-3ε” (Bioorg Med Chem Lett, 2014)
Activity calls are given as the source filed them. The calls are words filed in the database; no cut-off is given here.

Legend:
HT-29 [1] = test: Inhibition of histone H3 Ser10 phosphorylation in human HT-29 cells at 10 uM incubated for 1 hr by Western blotting method; format: functional, cell-based
HT-29 [2] = test: Inhibition of c-Jun protein expression in human HT-29 cells at 10 uM incubated for 1 hr by Western blotting method; format: functional, cell-based
HT-29 [3] = test: Inhibition of 14-3-3epsilon protein expression in human HT-29 cells at 10 uM incubated for 1 to 4 hrs by Western blotting method; format: functional, cell-based
[4] = biological target: T1, 14-3-3 protein epsilon (Homo sapiens) (UniProt P62258); test: Inhibition of recombinant 14-3-3epsilon protein (unknown origin) expression in Escherichia coli assessed as reduction in 14-3-3epsilon and histone H3 Ser10 interaction using human HT-29 cells lysates at 1 uM incubated for 1 hr by Western blotting based GST-pull down assay
T1 sequence (whole entry): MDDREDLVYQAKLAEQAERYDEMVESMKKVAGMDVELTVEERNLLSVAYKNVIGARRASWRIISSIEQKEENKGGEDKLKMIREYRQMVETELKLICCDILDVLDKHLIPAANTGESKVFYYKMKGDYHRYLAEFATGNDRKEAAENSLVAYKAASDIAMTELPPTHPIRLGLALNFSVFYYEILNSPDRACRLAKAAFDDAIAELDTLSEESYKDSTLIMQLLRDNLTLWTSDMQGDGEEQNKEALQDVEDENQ

[5] = biological target: T2, Aurora kinase A (Homo sapiens) (UniProt O14965); test: Inhibition of Aurora A kinase phosphorylation in human HT-29 cells at 10 uM incubated for 15 to 120 mins by Western blotting method; format: cell-based
T2 sequence (whole entry): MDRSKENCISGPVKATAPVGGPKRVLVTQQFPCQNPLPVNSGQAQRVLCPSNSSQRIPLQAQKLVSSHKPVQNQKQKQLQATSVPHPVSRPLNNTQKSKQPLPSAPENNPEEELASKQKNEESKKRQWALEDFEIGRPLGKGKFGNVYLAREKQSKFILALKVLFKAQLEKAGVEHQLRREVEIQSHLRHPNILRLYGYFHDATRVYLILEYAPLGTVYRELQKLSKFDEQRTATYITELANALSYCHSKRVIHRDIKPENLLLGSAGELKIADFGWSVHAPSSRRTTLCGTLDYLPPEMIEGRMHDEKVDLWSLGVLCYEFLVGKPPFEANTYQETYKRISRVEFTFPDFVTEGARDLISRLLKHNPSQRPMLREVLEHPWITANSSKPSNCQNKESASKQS

[6] = biological target: Aurora kinase B (Homo sapiens) (UniProt Q96GD4); test: Inhibition of Aurora B kinase phosphorylation in human HT-29 cells at 10 uM incubated for 15 to 120 mins by Western blotting method; format: cell-based
[7] = biological target: T3, Aurora kinase C (Homo sapiens) (UniProt Q9UQB9); test: Inhibition of Aurora C kinase phosphorylation in human HT-29 cells at 10 uM incubated for 15 to 120 mins by Western blotting method; format: cell-based
T3 sequence (whole entry): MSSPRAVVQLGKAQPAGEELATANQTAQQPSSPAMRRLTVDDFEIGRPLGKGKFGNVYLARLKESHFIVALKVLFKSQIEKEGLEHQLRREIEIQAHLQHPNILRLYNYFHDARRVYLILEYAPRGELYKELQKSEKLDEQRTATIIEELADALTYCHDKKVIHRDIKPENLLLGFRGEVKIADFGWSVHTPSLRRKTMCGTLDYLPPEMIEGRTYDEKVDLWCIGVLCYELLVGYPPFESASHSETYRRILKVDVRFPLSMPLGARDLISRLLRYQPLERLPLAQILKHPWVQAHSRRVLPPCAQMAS

[8] = biological target: Mitogen-activated protein kinase 8 (Homo sapiens) (UniProt P45983); test: Inhibition of JNK1 phosphorylation in human HT-29 cells at 10 uM incubated for 15 to 120 mins by Western blotting method; format: cell-based
[9] = biological target: Mitogen-activated protein kinase 9 (Homo sapiens) (UniProt P45984); test: Inhibition of JNK2 phosphorylation in human HT-29 cells at 10 uM incubated for 15 to 120 mins by Western blotting method; format: cell-based
[10] = biological target: MAP kinase p38 (Homo sapiens) (UniProt O15264+Q15759+Q16539+P53778); test: Inhibition of p38 phosphorylation in human HT-29 cells at 10 uM incubated for 15 to 120 mins by Western blotting method; format: cell-based
HT-29 [11] = test: Induction of Nrf2 protein protein expression in human HT-29 cells at 10 uM incubated for 6 to 24 hrs by Western blotting method; format: functional, cell-based
HT-29 [12] = test: Induction of HO-1 protein protein expression in human HT-29 cells at 10 uM incubated for 6 to 24 hrs by Western blotting method; format: functional, cell-based
HT-29 [13] = test: Toxicity against human HT-29 cells assessed as effect on cell viability at 10 uM incubated for 24 hrs by MTT assay; format: cell-based; conditions: ht-29, 24 h
HT-29 [14] = test: Induction of cell cycle arrest in human HT-29 cells assessed as accumulation at subG1 phase at 10 uM incubated for 6 hrs by propidium iodide staining based FACS assay (reference value: 0.79%); format: functional
HT-29 [15] = test: Induction of cell cycle arrest in human HT-29 cells assessed as accumulation at G0/G1 phase at 10 uM incubated for 6 hrs by propidium iodide staining based FACS assay (reference value: 60.39%); format: functional
HT-29 [16] = test: Induction of cell cycle arrest in human HT-29 cells assessed as accumulation at S phase at 10 uM incubated for 6 hrs by propidium iodide staining based FACS assay (reference value: 21.94%); format: functional
HT-29 [17] = test: Induction of cell cycle arrest in human HT-29 cells assessed as accumulation at G2/M phase at 10 uM incubated for 6 hrs by propidium iodide staining based FACS assay (reference value: 14.8%); format: functional
HT-29 [18] = test: Induction of cell cycle arrest in human HT-29 cells assessed as accumulation at subG1 phase at 10 uM incubated for 24 hrs by propidium iodide staining based FACS assay (reference value: 0.79%); format: functional
HT-29 [19] = test: Induction of cell cycle arrest in human HT-29 cells assessed as accumulation at G0/G1 phase at 10 uM incubated for 24 hrs by propidium iodide staining based FACS assay (reference value: 60.39%); format: functional
HT-29 [20] = test: Induction of cell cycle arrest in human HT-29 cells assessed as accumulation at S phase at 10 uM incubated for 24 hrs by propidium iodide staining based FACS assay (reference value: 21.94%); format: functional
HT-29 [21] = test: Induction of cell cycle arrest in human HT-29 cells assessed as accumulation at G2/M phase at 10 uM incubated for 24 hrs by propidium iodide staining based FACS assay (reference value: 14.8%); format: functional

Mitogen-activated protein kinase 9 (Homo sapiens), sequence (P45984 whole entry, looked up): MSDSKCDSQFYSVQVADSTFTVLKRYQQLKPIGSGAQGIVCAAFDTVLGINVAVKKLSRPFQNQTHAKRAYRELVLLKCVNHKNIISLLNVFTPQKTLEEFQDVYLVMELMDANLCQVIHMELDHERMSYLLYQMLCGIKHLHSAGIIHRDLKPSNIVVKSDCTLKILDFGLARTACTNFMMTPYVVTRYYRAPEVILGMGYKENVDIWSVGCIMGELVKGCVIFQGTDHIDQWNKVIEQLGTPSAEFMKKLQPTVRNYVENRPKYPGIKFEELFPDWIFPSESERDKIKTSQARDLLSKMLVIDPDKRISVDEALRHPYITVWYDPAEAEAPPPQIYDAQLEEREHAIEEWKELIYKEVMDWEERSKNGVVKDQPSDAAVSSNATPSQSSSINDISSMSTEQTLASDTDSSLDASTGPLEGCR
Aurora kinase B (Homo sapiens), sequence (Q96GD4 whole entry): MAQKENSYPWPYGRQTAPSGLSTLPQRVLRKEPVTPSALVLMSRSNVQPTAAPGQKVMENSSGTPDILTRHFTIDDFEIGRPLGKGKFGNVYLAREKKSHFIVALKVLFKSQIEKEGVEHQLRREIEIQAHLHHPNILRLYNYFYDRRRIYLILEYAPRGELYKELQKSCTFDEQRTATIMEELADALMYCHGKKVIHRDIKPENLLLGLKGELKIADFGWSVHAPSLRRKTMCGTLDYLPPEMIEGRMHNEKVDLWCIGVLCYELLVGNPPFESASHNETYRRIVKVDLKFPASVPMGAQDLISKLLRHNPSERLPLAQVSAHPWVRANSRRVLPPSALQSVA
Mitogen-activated protein kinase 8 (Homo sapiens), sequence (P45983 whole entry): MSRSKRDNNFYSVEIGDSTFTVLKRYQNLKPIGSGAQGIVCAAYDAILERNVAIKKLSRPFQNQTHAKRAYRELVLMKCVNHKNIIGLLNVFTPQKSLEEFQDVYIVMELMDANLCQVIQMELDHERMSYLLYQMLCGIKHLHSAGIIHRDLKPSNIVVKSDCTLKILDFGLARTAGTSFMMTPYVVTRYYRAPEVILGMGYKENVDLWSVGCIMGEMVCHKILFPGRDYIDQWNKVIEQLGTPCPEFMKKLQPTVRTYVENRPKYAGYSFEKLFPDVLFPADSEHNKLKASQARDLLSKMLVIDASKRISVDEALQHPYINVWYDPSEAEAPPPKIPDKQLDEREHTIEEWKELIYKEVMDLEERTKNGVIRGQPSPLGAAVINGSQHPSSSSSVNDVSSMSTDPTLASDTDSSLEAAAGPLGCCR

Compound: C[C@H]1[C@H](C)CC[C@]2(C)CC[C@]3(C)C(=CC[C@@H]4[C@@]5(C)CC[C@H](O)C(C)(C)[C@@H]5CC[C@]43C)[C@H]12
- inhibition (HT-29 [1]): Active
- inhibition (HT-29 [2]): Active
- inhibition (HT-29 [3]): inactive
- inhibition [4]: inactive

Compound: CCCCCCCCCCCCC/C=C1/C(=O)O[C@H](C)[C@@H]1O
- inhibition (HT-29 [1]): Active
- inhibition (HT-29 [2]): Active
- inhibition (HT-29 [3]): inactive
- inhibition [4]: inactive

Compound: CC1(C)CC[C@]2(C(=O)O)CC[C@]3(C)C(=CC[C@@H]4[C@@]5(C)CC[C@H](O)C(C)(C)[C@@H]5CC[C@]43C)[C@@H]2C1
- inhibition (HT-29 [1]): Active
- inhibition (HT-29 [2]): Active
- inhibition (HT-29 [3]): inactive
- inhibition [4]: inactive

Compound: COc1c2c(cc3oc(C)cc(=O)c13)OC(C(C)(C)O[C@H]1O[C@@H](CO)[C@H](O)[C@@H](O)[C@@H]1O)C2 (stereo partly drawn)
- inhibition (HT-29 [1]): Active
- inhibition (HT-29 [2]): Active
- inhibition (HT-29 [3]): inactive
- inhibition [4]: Active
- inhibition [5]: Active
- inhibition [6]: Active
- inhibition [7]: Active
- inhibition [8]: Active
- inhibition [9]: Active
- inhibition [10]: inactive
- Activity (HT-29 [11]): Active
- Activity (HT-29 [12]): Active
- Activity (HT-29 [13]): Non-toxic
- Activity (HT-29 [14]): 1.06%
- Activity (HT-29 [15]): 58.61%
- Activity (HT-29 [16]): 16.85%
- Activity (HT-29 [17]): 21.86%
- Activity (HT-29 [18]): 0.88%
- Activity (HT-29 [19]): 59.07%
- Activity (HT-29 [20]): 15.97%
- Activity (HT-29 [21]): 22.29%
